Results on 1 compound are retold here after US20170056504A1, “METHOD OF EXTENDING HALF-LIFE OF CRYSTALINE ANTIBODIES” (priority 2015, published 2017).

Series [1] is described as follows: Mouse model of high fat diet induced hyperlipidemia (another study). The class given is in vivo.
In series [2] the test system is Substance P and nerve growth factor (NGF). Nature of the series: Pregabalin-mediated suppression of pain associated factors with lactulose-generated hydrogen. The class given is in vivo. The note with it: hydrogen generated by lactulose, mice.
A short description of series [3]: Lactulose with antibiotics cocktail: xPCSK9 mAb serum half-life and large intestine pH. It counts as in vivo, C57BL6 mice. The note with it: with antibiotics cocktail in drinking water.
Description: At Day 0, anti-PCSK9-mAb was systemically administrated (30 mg/kg in PBS, i.v.) to the FcRn gene knockout mice or their wild type C57BL/6 mice (8 w old male). Lactulose (30%, water solution) was orally administered using a Popper's feeding needle once in a day throughout the experiment. In some experiment, groups of mice received antibiotics cocktail (Ampicillin, 2 mg/ml; Vancomycin, 1 mg/ml, Metronidazole 2 mg/ml and Neomycin, 2 mg/ml) ad libitum for 7 days. Blood was collected from mice at Day 1 and Day 7 (100 ul/mouse) by retro-orbital bleeding. The serum was separated from the collected blood and saved at −70 C until the measurement of anti-PCSK9-mAb as well as low-density lipoprotein (LDL) cholesterol in the sampled serum. At Day 7, right after the collection of blood, mice were sacrificed, and liver, small intestine (distal portion, 2 cm above cecum) and large intestine (proximal colon, 1 cm below cecum) were collected. […] The amount of LDL/VLDL in the serum was monitored using a HDL and LDL/VLDL Quantitation Kit (Sigma-Aldrich). The amount of anti-PCSK9-mAb in serum, liver, small and large intestines were measured using the ELISA as described above #1. […] In FIG. 11B, content of large intestine sampled from sacrificed mice was suspended in water (0.1 g/1 ml) and the pH was monitored.
The target in a further series is PCSK9 (Mus musculus, UniProt Q80W65). Nature of the series: LDL level in blood serum of mice that received xPCSK9 mAb and/or lactulose. The note with it: oral lactulose alone without xPCSK9 mAb, Day 7. Details: endogenous in cells; host or cells: C57BL6 mice, in vivo (circulating PCSK9 of the animal). The class given is in vivo, C57BL6 mice. On the procedure:
At Day 0, anti-PCSK9-mAb was systemically administrated (30 mg/kg in PBS, i.v.) to the FcRn gene knockout mice or their wild type C57BL/6 mice (8 w old male). Lactulose (30%, water solution) was orally administered using a Popper's feeding needle once in a day throughout the experiment. In some experiment, groups of mice received antibiotics cocktail (Ampicillin, 2 mg/ml; Vancomycin, 1 mg/ml, Metronidazole 2 mg/ml and Neomycin, 2 mg/ml) ad libitum for 7 days. Blood was collected from mice at Day 1 and Day 7 (100 ul/mouse) by retro-orbital bleeding. The serum was separated from the collected blood and saved at −70 C until the measurement of anti-PCSK9-mAb as well as low-density lipoprotein (LDL) cholesterol in the sampled serum. […] The amount of LDL/VLDL in the serum was monitored using a HDL and LDL/VLDL Quantitation Kit (Sigma-Aldrich). The amount of anti-PCSK9-mAb in serum, liver, small and large intestines were measured using the ELISA as described above #1. […]
From Day-0 to Day 7, Lactulose (50% water solution, 0.2 ml/mouse) or control water (0.2 ml/mouse) was orally administered once/day. […] At Day 0, prior to any administrations, and Day 7, blood serum was collected and the concentration of LDL was monitored using LDL detection kit (Sigma).

Chain of PCSK9 (Q80W65 156-694): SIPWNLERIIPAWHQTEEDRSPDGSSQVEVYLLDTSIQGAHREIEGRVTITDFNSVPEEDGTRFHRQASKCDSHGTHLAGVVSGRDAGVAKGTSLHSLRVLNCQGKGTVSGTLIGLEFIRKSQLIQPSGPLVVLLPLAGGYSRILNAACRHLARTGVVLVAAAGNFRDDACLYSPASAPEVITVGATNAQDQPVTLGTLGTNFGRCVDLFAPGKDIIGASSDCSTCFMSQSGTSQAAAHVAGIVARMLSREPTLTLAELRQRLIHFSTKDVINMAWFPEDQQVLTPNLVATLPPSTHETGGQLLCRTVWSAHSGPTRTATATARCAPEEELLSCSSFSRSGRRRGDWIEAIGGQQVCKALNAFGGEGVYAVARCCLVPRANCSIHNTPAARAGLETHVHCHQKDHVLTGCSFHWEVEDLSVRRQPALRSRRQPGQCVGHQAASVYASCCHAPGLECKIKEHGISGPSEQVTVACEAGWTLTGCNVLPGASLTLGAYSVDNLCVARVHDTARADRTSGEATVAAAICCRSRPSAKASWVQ

On to `OC[C@H]1O[C@@H](O[C@@H]2[C@@H](CO)OC(O)(CO)[C@H]2O)[C@H](O)[C@@H](O)[C@H]1O` (mixture of isomers) [lactulose], for which the “oxidized LDL (oxLDL)” value in series [1] is given as “can suppress”. In series [2], the “effect on pregabalin-mediated suppression of Substance P and NGF” value is recorded as “additive effect”. In series [3], the “effect of lactulose on extending the serum half-life of xPCSK9 mAb” value is given as “abolished”. In addition, the “LDL level in blood serum versus base line (Day 0)” value on PCSK9 is given as “did not show any changes from the base line level”.
